According to paper PMC9250534, “Synthesis and direct assay of large macrocycle diversities by combinatorial late-stage modification at picomole scale” (Nature Communications, 2022):
Numbered stars: 1 amine (or outer) side, 2 acyl side, 3 side chain; on linkers, the order of the positions; unused ones are H or OH. Bridge positions count the residues as written; N and C are the ends. Square brackets hold non-standard residues; d marks the D form. Peptide text beside a SMILES is read from it. * marks the point of attachment. ξ: configuration not given here. ξPro(4ξ-NHCOC6H4-4-Cl) = O=C(NC1CNC(C(=O)O)C1)c1ccc(Cl)cc1; 2Thenoyl(5-Cl) = O=C(c1ccc(Cl)s1)*; Benzoyl(4-Cl) = O=C(c1ccc(Cl)cc1)*; Cysteamide = C(CS[*:3])N[*:1]; X1 = O=C(/C=C/c1ccccc1)*; Api = NC1(C(=O)O)CCNCC1; Dap = NC[CH](N)C(=O)O; X2 = O=C(C=Cc1ccccc1)*; Mpa = O=C(O)CCS

Target: MDM2 (Homo sapiens, UniProt Q00987)
Sequence (Q00987 whole entry): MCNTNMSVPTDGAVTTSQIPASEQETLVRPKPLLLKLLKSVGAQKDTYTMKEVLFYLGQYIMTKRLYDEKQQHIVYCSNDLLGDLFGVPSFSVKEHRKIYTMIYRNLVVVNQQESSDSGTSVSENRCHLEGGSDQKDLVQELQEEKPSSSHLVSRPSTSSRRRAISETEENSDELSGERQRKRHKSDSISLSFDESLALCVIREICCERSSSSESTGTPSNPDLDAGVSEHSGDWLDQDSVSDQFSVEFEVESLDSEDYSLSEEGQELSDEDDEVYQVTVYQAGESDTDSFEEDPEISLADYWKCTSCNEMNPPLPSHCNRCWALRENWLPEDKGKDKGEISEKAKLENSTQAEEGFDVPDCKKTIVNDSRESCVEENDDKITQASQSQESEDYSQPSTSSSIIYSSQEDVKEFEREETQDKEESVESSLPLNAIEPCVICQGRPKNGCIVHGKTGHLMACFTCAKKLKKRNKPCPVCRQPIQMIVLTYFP
Assay: MDM2 binding screen: displacement of fluorescent p53 peptide probe FP53 (fluorescence polarization)
Conditions: crude macrocycle reactions; for fraction fluorescent probe displaced, Screen: initial screen
Method: We screened Library 2 in 384-microwell plates by dispensing the target protein MDM2 and reporter peptide into the wells containing the macrocycle reactions.
The products were screened for displacement of a p53-based fluorescent peptide from human MDM2. Final macrocycle concentrations were 10 µM. For each macrocycle, the MDM2 binding was measured once.
One fluorescence anisotropy reading was taken with a Tecan Infinite F200 Pro fluorescence plate reader (excitation at 485 nm, emission at 535 nm) at 25 °C. Data was collected and exported using the Tecan Infinite M200 Pro instrument software. The data was analyzed by Excel (version 2016).

fraction fluorescent probe displaced, Screen (Acid 91)	fraction fluorescent probe displaced, Replicate (Acid 91)	fraction fluorescent probe displaced, Screen (Acid 14)	fraction fluorescent probe displaced, Replicate (Acid 14)	SMILES	also measured
–	–	–	–	O=C1NC2(CCN(C(=O)c3ccc(Cl)cc3)CC2)C(=O)NCCSSCCC(=O)N2CCC[C@H]2C(=O)N[C@H]1Cc1ccccc1 [X B1 F D6 Acid 25] ([Mpa]PF[Api](Benzoyl(4-Cl))-Cysteamide; disulfide 1-C)	fraction fluorescent probe displaced, Screen (Acid 25): 0.09; fraction fluorescent probe displaced, Replicate (Acid 25): 0.15
0.00268	0.04	–	–	O=C1NC2(CCN(C(=O)C=Cc3ccccc3)CC2)C(=O)NCCSSCCC(=O)N2CCCC2C(=O)NC1Cc1ccccc1 (centres unmarked) [X B1 F D6 Acid 91] ([Mpa]PF[Api](X2)-Cysteamide; disulfide 1-C; configuration not given here)	–
–	–	0.053	0.12	O=C1NC(Cc2ccccc2)C(=O)N2CCN(C(=O)c3ccc(Cl)s3)CC2C(=O)NCCSSCCC(=O)N2CCCC12 (centres unmarked) [X B1 F D7 Acid 14]	–
–	–	–	–	O=C1NC(Cc2ccccc2)C(=O)N2CCN(C(=O)c3ccc(Cl)cc3)CC2C(=O)NCCSSCCC(=O)N2CCCC12 (centres unmarked) [X B1 F D7 Acid 25]	fraction fluorescent probe displaced, Screen (Acid 25): 0.0244; fraction fluorescent probe displaced, Replicate (Acid 25): 0.12
–	–	0.23	0.15	O=C(NCC1NC(=O)C(Cc2c[nH]c3ccccc23)NC(=O)C2CCCN2C(=O)CCSSCCNC1=O)c1ccc(Cl)s1 (centres unmarked) [X B1 W D3 Acid 14] ([Mpa]PW[Dap](2Thenoyl(5-Cl))-Cysteamide; disulfide 1-C; configuration not given here)	–
–	–	–	–	O=C(NC[C@@H]1NC(=O)[C@H](Cc2c[nH]c3ccccc23)NC(=O)[C@@H]2CCCN2C(=O)CCSSCCNC1=O)c1ccc(Cl)cc1 [X B1 W D3 Acid 25] ([Mpa]PW[Dap](Benzoyl(4-Cl))-Cysteamide; disulfide 1-C)	fraction fluorescent probe displaced, Screen (Acid 25): 0.25; fraction fluorescent probe displaced, Replicate (Acid 25): 0.25
0.08	0.04	–	–	O=C(/C=C/c1ccccc1)NC[C@@H]1NC(=O)[C@H](Cc2c[nH]c3ccccc23)NC(=O)[C@@H]2CCCN2C(=O)CCSSCCNC1=O [X B1 W D3 Acid 91] ([Mpa]PW[Dap](X1)-Cysteamide; disulfide 1-C)	–
–	–	–	–	O=C(NC1CC2C(=O)NCCSSCCC(=O)N3CCCC3C(=O)NC(Cc3c[nH]c4ccccc34)C(=O)N2C1)c1ccc(Cl)cc1 (centres unmarked) [X B1 W D5 Acid 25] ([Mpa]PW[ξPro(4ξ-NHCOC6H4-4-Cl)]-Cysteamide; disulfide 1-C; configuration not given here)	fraction fluorescent probe displaced, Screen (Acid 25): 0.15; fraction fluorescent probe displaced, Replicate (Acid 25): 0.20
–	–	0.20	0.12	O=C1NC2(CCN(C(=O)c3ccc(Cl)s3)CC2)C(=O)NCCSSCCC(=O)N2CCC[C@H]2C(=O)N[C@H]1Cc1c[nH]c2ccccc12 [X B1 W D6 Acid 14] ([Mpa]PW[Api](2Thenoyl(5-Cl))-Cysteamide; disulfide 1-C)	–
0.14	0.07	–	–	O=C1NC2(CCN(C(=O)/C=C/c3ccccc3)CC2)C(=O)NCCSSCCC(=O)N2CCC[C@H]2C(=O)N[C@H]1Cc1c[nH]c2ccccc12 [X B1 W D6 Acid 91] ([Mpa]PW[Api](X1)-Cysteamide; disulfide 1-C)	–
–	–	0.08	0.15	O=C1NC(Cc2c[nH]c3ccccc23)C(=O)N2CCN(C(=O)c3ccc(Cl)s3)CC2C(=O)NCCSSCCC(=O)N2CCCC12 (centres unmarked) [X B1 W D7 Acid 14]	–
–	–	-0.00483	0.0465	O=C1CCSSCCNC(=O)[C@H](Cc2ccccc2)NC(=O)[C@H](CNC(=O)c2ccc(Cl)s2)NC(=O)CCN1 [X B2 D3 F Acid 14]	–
–	–	–	–	O=C1CCSSCCNC(=O)[C@H](Cc2ccccc2)NC(=O)[C@H](CNC(=O)c2ccc(Cl)cc2)NC(=O)CCN1 [X B2 D3 F Acid 25]	fraction fluorescent probe displaced, Screen (Acid 25): 0.0244; fraction fluorescent probe displaced, Replicate (Acid 25): -0.0552
0.0563	-0.00827	–	–	O=C(/C=C/c1ccccc1)NC[C@@H]1NC(=O)CCNC(=O)CCSSCCNC(=O)[C@H](Cc2ccccc2)NC1=O [X B2 D3 F Acid 91]	–
–	–	–	–	O=C1CCSSCCNC(=O)[C@H](Cc2c[nH]c3ccccc23)NC(=O)[C@H](CNC(=O)c2ccc(Cl)cc2)NC(=O)CCN1 [X B2 D3 W Acid 25]	fraction fluorescent probe displaced, Screen (Acid 25): 0.19; fraction fluorescent probe displaced, Replicate (Acid 25): 0.22
0.27	0.14	–	–	O=C(/C=C/c1ccccc1)NC[C@@H]1NC(=O)CCNC(=O)CCSSCCNC(=O)[C@H](Cc2c[nH]c3ccccc23)NC1=O [X B2 D3 W Acid 91]	–
–	–	0.16	0.05	O=C1CCSSCCNC(=O)[C@H](Cc2ccccc2)NC(=O)[C@@H]2C[C@H](NC(=O)c3ccc(Cl)s3)CN2C(=O)CCN1 [X B2 D5 F Acid 14]	–
–	–	–	–	O=C1CCSSCCNC(=O)C(Cc2ccccc2)NC(=O)C2CC(NC(=O)c3ccc(Cl)cc3)CN2C(=O)CCN1 (centres unmarked) [X B2 D5 F Acid 25]	fraction fluorescent probe displaced, Screen (Acid 25): 0.16; fraction fluorescent probe displaced, Replicate (Acid 25): 0.05
-0.17	-0.08	–	–	O=C(C=Cc1ccccc1)NC1CC2C(=O)NC(Cc3ccccc3)C(=O)NCCSSCCC(=O)NCCC(=O)N2C1 (centres unmarked) [X B2 D5 F Acid 91]	–

fraction fluorescent probe displaced, Screen (Acid 91)	fraction fluorescent probe displaced, Replicate (Acid 91)	fraction fluorescent probe displaced, Screen (Acid 14)	fraction fluorescent probe displaced, Replicate (Acid 14)	SMILES	also measured
–	–	0.11	0.17	O=C1CCSSCCNC(=O)C(Cc2c[nH]c3ccccc23)NC(=O)C2CC(NC(=O)c3ccc(Cl)s3)CN2C(=O)CCN1 (centres unmarked) [X B2 D5 W Acid 14]	–
0.03	0.0168	–	–	O=C(C=Cc1ccccc1)NC1CC2C(=O)NC(Cc3c[nH]c4ccccc34)C(=O)NCCSSCCC(=O)NCCC(=O)N2C1 (centres unmarked) [X B2 D5 W Acid 91]	–
–	–	0.13	0.0229	O=C1CCSSCCNC(=O)[C@H](Cc2ccccc2)NC(=O)C2(CCN(C(=O)c3ccc(Cl)s3)CC2)NC(=O)CCN1 [X B2 D6 F Acid 14]	–
0.16	0.07	–	–	O=C1CCSSCCNC(=O)[C@H](Cc2c[nH]c3ccccc23)NC(=O)C2(CCN(C(=O)/C=C/c3ccccc3)CC2)NC(=O)CCN1 [X B2 D6 W Acid 91]	–
–	–	0.17	0.07	O=C1CCSSCCNC(=O)C(Cc2c[nH]c3ccccc23)NC(=O)C2CN(C(=O)c3ccc(Cl)s3)CCN2C(=O)CCN1 (centres unmarked) [X B2 D7 W Acid 14]	–
0.14	0.07	–	–	O=C1CCSSCCNC(=O)C(Cc2c[nH]c3ccccc23)NC(=O)C2CN(C(=O)C=Cc3ccccc3)CCN2C(=O)CCN1 (centres unmarked) [X B2 D7 W Acid 91]	–
–	–	0.0241	0.12	O=C1CCSSCCNC(=O)[C@H](CNC(=O)c2ccc(Cl)s2)NC(=O)[C@H](Cc2ccccc2)NC(=O)CCN1 [X B2 F D3 Acid 14]	–
–	–	–	–	O=C1CCSSCCNC(=O)[C@H](CNC(=O)c2ccc(Cl)cc2)NC(=O)[C@H](Cc2ccccc2)NC(=O)CCN1 [X B2 F D3 Acid 25]	fraction fluorescent probe displaced, Screen (Acid 25): 0.0569; fraction fluorescent probe displaced, Replicate (Acid 25): -0.03
0.03	-0.11	–	–	O=C(/C=C/c1ccccc1)NC[C@@H]1NC(=O)[C@H](Cc2ccccc2)NC(=O)CCNC(=O)CCSSCCNC1=O [X B2 F D3 Acid 91]	–
–	–	0.14	0.07	O=C1CCSSCCNC(=O)C2CC(NC(=O)c3ccc(Cl)s3)CN2C(=O)C(Cc2ccccc2)NC(=O)CCN1 (centres unmarked) [X B2 F D5 Acid 14]	–
0.00268	-0.08	–	–	O=C(C=Cc1ccccc1)NC1CC2C(=O)NCCSSCCC(=O)NCCC(=O)NC(Cc3ccccc3)C(=O)N2C1 (centres unmarked) [X B2 F D5 Acid 91]	–
–	–	0.08	0.12	O=C1CCSSCCNC(=O)C2(CCN(C(=O)c3ccc(Cl)s3)CC2)NC(=O)[C@H](Cc2ccccc2)NC(=O)CCN1 [X B2 F D6 Acid 14]	–
–	–	–	–	O=C1CCSSCCNC(=O)C2(CCN(C(=O)c3ccc(Cl)cc3)CC2)NC(=O)[C@H](Cc2ccccc2)NC(=O)CCN1 [X B2 F D6 Acid 25]	fraction fluorescent probe displaced, Screen (Acid 25): -0.17; fraction fluorescent probe displaced, Replicate (Acid 25): 0.0465
0.0563	0.12	–	–	O=C1CCSSCCNC(=O)C2(CCN(C(=O)/C=C/c3ccccc3)CC2)NC(=O)[C@H](Cc2ccccc2)NC(=O)CCN1 [X B2 F D6 Acid 91]	–
0.03	-0.00827	–	–	O=C1CCSSCCNC(=O)C2CN(C(=O)C=Cc3ccccc3)CCN2C(=O)C(Cc2ccccc2)NC(=O)CCN1 (centres unmarked) [X B2 F D7 Acid 91]	–
–	–	–	–	O=C1CCSSCCNC(=O)[C@H](CNC(=O)c2ccc(Cl)cc2)NC(=O)[C@H](Cc2c[nH]c3ccccc23)NC(=O)CCN1 [X B2 W D3 Acid 25]	fraction fluorescent probe displaced, Screen (Acid 25): 0.19; fraction fluorescent probe displaced, Replicate (Acid 25): 0.22
0.14	0.07	–	–	O=C(/C=C/c1ccccc1)NC[C@@H]1NC(=O)[C@H](Cc2c[nH]c3ccccc23)NC(=O)CCNC(=O)CCSSCCNC1=O [X B2 W D3 Acid 91]	–
–	–	0.11	0.15	O=C1CCSSCCNC(=O)[C@@H]2C[C@H](NC(=O)c3ccc(Cl)s3)CN2C(=O)[C@H](Cc2c[nH]c3ccccc23)NC(=O)CCN1 [X B2 W D5 Acid 14]	–
